Data as given in US20070154445A1, “Compositions, methods and kits for preventing the decomposition of urine” (priority 2006, published 2007).
Where two headings read alike, the source gives them in different places.

[1] = 5 grams in total added to 600 milliliters of urine
[2] = 4 grams in total added to 600 milliliters of urine

Procedure: Accordingly, various compositions were tested to determine their effect on the pH when added to 600 milliliters of urine.

| SMILES | Resulting pH [1] | Resulting pH [2] |
| --- | --- | --- |
| O=C(O)CCC(=O)O [Pure succinic acid in granular form, succinic acid] | 4.2 | – |
| O=C(O)C(O)C(O)C(=O)O (centres unmarked) [Pure tartaric acid in granular form, tartaric acid] | 3.3 | 3.4 |
| O=C(O)CC(O)(CC(=O)O)C(=O)O [Pure citric acid in granular form, citric acid] | 3.7 | 3.8 |
